# Results reported in US20120071536A1, “N-[(2-AZABICYCLO[2.1.1]HEX-1-YL)-ARYL-METHYL]-BENZAMIDE DERIVATIVES, PREPARATION THEREOF, AND THERAPEUTIC USE THEREOF” (SANOFI, priority 2009, published 2012).
# Where a name gives a salt, the structure may show the parent alone.
row,Structure (SMILES),melting point [°C]
1,"O=C(NC(c1ccc(F)cc1)C12CC(CN1)C2)c1cccc(C(F)(F)F)c1Cl (racemic) [Compound 16, N-[(2-Azabicyclo[2.1.1]hex-1-yl)(4-fluorophenyl)methyl]-2-chloro-3-(trifluoromethyl)-benzamide]",172.5 to 173
2,"O=C(NC(c1cccc(O)c1)C12CC(CN1)C2)c1cccc(C(F)(F)F)c1Cl (racemic) (as salt: HCl) [Compound 24, N-[(2-Azabicyclo[2.1.1]hex-1-yl)(3-hydroxyphenyl)methyl]-2-chloro-3-(trifluoromethyl)-benzamide]",187 to 188
3,"COc1cccc(C(NC(=O)c2cccc(C(F)(F)F)c2Cl)C23CC(CN2)C3)c1 (racemic) (as salt: HCl) [Compound 3, N-[(2-Azabicyclo[2.1.1]hex-1-yl)(3-methoxyphenyl)methyl]-2-chloro-3-(trifluoro-methyl)benzamide]",143 to 144
4,"Cc1cccc(C(NC(=O)c2cccc(C(F)(F)F)c2Cl)C23CC(CN2)C3)c1 (racemic) (as salt: HCl) [Compound 2, N-[(2-Azabicyclo[2.1.1]hex-1-yl)(m-tolyl)methyl]-2-chloro-3-(trifluoromethyl)benzamide]",159.5 to 160.5
5,"Cc1c(C(=O)NC(c2ccccc2)C23CC(CN2)C3)cccc1C(F)(F)F (racemic) [Compound 7, N-[(2-Azabicyclo[2.1.1]hex-1-yl)(phenyl)methyl]-2-methyl-3-(trifluoromethyl)-benzamide]",146 to 147
6,"O=C(NC(c1cccc(C(F)(F)F)c1)C12CC(CN1)C2)c1cccc(C(F)(F)F)c1Cl (racemic) (as salt: HCl) [Compound 4, N-[(2-Azabicyclo[2.1.1]hex-1-yl)[3-(trifluoromethyl)phenyl]methyl]-2-chloro-3-(trifluoromethyl)benzamide]",214 to 217
7,Cl.O=C(NC(c1ccccc1)C12CC(CN1)C2)c1cc(C(F)(F)F)ccc1Cl (racemic),162.5 to 163.5
8,"Cc1cccc(C(NC(=O)c2c(Cl)ccc(C(F)(F)F)c2Cl)C23CC(CN2)C3)c1 (racemic) (as salt: HCl) [Compound 29, N-[(2-Azabicyclo[2.1.1]hex-1-yl)(m-tolyl)methyl]-2,6-dichloro-3-(trifluoromethyl)-benzamide]",146 to 147
9,"CCN1CC2CC1(C(NC(=O)c1cccc(C(F)(F)F)c1Cl)c1ccccc1)C2 (single isomer, unassigned; (+)) (as salt: HCl) [Compound 26, (+)-2-Chloro-N-[(2-ethyl-2-azabicyclo[2.1.1]hex-1-yl)(phenyl)methyl]-3-(trifluoromethyl)benzamide]",257 to 259
10,"O=C(NC(c1ccccc1)C12CC(CN1)C2)c1cccc(C(F)(F)F)c1Cl (single isomer, unassigned; (-)) (as salt: HCl) [Compound 13, (−)N-[(2-Azabicyclo[2.1.1]hex-1-yl)(phenyl)methyl]-2-chloro-3-(trifluoromethyl)-benzamide]",140 to 150
11,"C=CCN1CC2CC1(C(NC(=O)c1cc(Br)c(Cl)cc1N)c1ccccc1)C2 (racemic) [Compound 20, N-[(2-Allyl-2-azabicyclo[2.1.1]hex-1-yl)(phenyl)methyl]-2-amino-5-bromo-4-chloro-benzamide]",66 to 67
12,"Nc1ccc(C(NC(=O)c2cccc(C(F)(F)F)c2Cl)C23CC(CN2)C3)cc1 (racemic) (as salt: HCl) [Compound 1, N-[(4-Aminophenyl)(2-azabicyclo[2.1.1]hex-1-yl)methyl]-2-chloro-3-(trifluoromethyl)-benzamide]",195 to 197
13,"O=C(NC(c1ccccc1)C12CC(CN1)C2)c1c(Cl)ccc(C(F)(F)F)c1Cl (racemic) [Compound 8, N-[(2-Azabicyclo[2.1.1]hex-1-yl)(phenyl)methyl]-2,6-dichloro-3-(trifluoromethyl)-benzamide]",80.5 to 81.5
14,"CCc1ccccc1C(=O)NC(c1ccccc1)C12CC(CN1CC)C2 (racemic) (as salt: HCl) [Compound 31, 2-Ethyl-N-[(2-ethyl-2-azabicyclo[2.1.1]hex-1-yl)(phenyl)methyl]benzamide]",241 to 242
15,"O=C(NC(c1ccccc1)C12CC(CN1Cc1ccccc1)C2)c1cccc(C(F)(F)F)c1Cl (racemic) (as salt: HCl) [Compound 33, N-[(2-Benzyl-2-azabicyclo[2.1.1]hex-1-yl)(phenyl)methyl]-2-chloro-3-(trifluoromethyl)-benzamide]",244 to 245.5
16,"CCS(=O)(=O)c1cc(C(=O)NC(c2ccccc2)C23CC(CN2)C3)c(OC)cc1Cl (racemic) (as salt: HCl) [Compound 15, N-[(2-Azabicyclo[2.1.1]hex-1-yl)(phenyl)methyl]-4-chloro-5-(ethanesulphonyl)-2-methoxybenzamide]",232 to 233
17,CC(C)(O)CN1CC2CC1(C(NC(=O)c1c(Cl)ccc(C(F)(F)F)c1Cl)c1ccccc1)C2 (racemic) (as salt: HCl) [Compound 22],178.5 to 179
18,"CCCN1CC2CC1(C(NC(=O)c1cc(Br)c(Cl)cc1N)c1ccccc1)C2 (racemic) (as salt: HCl) [Compound 21, 2-Amino-5-bromo-4-chloro-N-[(phenyl)(2-propyl-2-azabicyclo[2.1.1]hex-1-yl)methyl]-benzamide]",153 to 154
19,"Cc1ccc(F)c(C(=O)NC(c2ccccc2)C23CC(CN2)C3)c1Cl (racemic) [Compound 10, N-[(2-Azabicyclo[2.1.1]hex-1-yl)(phenyl)methyl]-2-chloro-6-fluoro-3-methylbenzamide]",123 to 124
20,"Cc1cccc(C)c1C(=O)NC(c1ccccc1)C12CC(CN1)C2 (racemic) (as salt: HCl) [Compound 27, N-[(2-Azabicyclo[2.1.1]hex-1-yl)(phenyl)methyl]-2,6-dimethylbenzamide]",273.5 to 274.5
21,"Cc1cccc(C(=O)NC(c2ccccc2)C23CC(CN2)C3)c1Cl (racemic) [Compound 12, N-[(2-Azabicyclo[2.1.1]hex-1-yl)(phenyl)methyl]-2-chloro-3-methylbenzamide]",139.5 to 140.5
22,CCN1CC2CC1(C(NC(=O)c1cccc(C(F)(F)F)c1Cl)c1ccccc1)C2.Cl (racemic),152 to 155
23,"Cc1c(C(F)(F)F)ccc(Cl)c1C(=O)NC(c1ccccc1)C12CC(CN1)C2 (racemic) (as salt: HCl) [Compound 32, N-[(2-Azabicyclo[2.1.1]hex-1-yl)(phenyl)methyl]-6-chloro-2-methyl-3-(trifluoromethyl)-benzamide]",200 to 201
24,"O=C(NC(c1ccc2ccccc2c1)C12CC(CN1)C2)c1cccc(C(F)(F)F)c1Cl (racemic) (as salt: HCl) [Compound 17, N-[(2-Azabicyclo[2.1.1]hex-1-yl)(naphth-2-yl)methyl]-2-chloro-3-(trifluoromethyl)-benzamide]",135 to 170
25,"CCc1ccccc1C(=O)NC(c1ccccc1)C12CC(CN1)C2 (racemic) (as salt: HCl) [Compound 28, N-[(2-Azabicyclo[2.1.1]hex-1-yl)(phenyl)methyl]-2-ethylbenzamide]",264 to 265
26,"CCN1CC2CC1(C(NC(=O)c1c(C)cccc1C)c1ccccc1)C2 (racemic) (as salt: HCl) [Compound 30, N-[(2-Ethyl-2-azabicyclo[2.1.1]hex-1-yl)(phenyl)methyl]-2,6-dimethylbenzamide]",212 to 214
27,"O=C(NC(c1ccccc1)C12CC(CN1)C2)c1cccc(C(F)(F)F)c1Cl (single isomer, unassigned; (+)) (as salt: HCl) [Compound 14, (+)-N-[(2-Azabicyclo[2.1.1]hex-1-yl)(phenyl)methyl]-2-chloro-3-(trifluoromethyl)-benzamide]",160 to 170
28,"O=C(NC(c1ccccc1)C12CC(CN1CC1CC1)C2)c1cccc(C(F)(F)F)c1Cl (racemic) (as salt: HCl) [Compound 25, 2-Chloro-N-[(2-cyclopropylmethyl-2-azabicyclo[2.1.1]hex-1-yl)(phenyl)methyl]-3-(trifluoromethyl)benzamide]",240.5 to 241.5
